# According to patent US8808715B1, “Methods and compositions for modulating keratinocyte function” (Georgia Regents Research Institute, Inc, priority 2004, dated 2014):
# Key:
# [1] = tested on: slowly dividing keratinocytes; test: Assay of DNA synthesis ([3H]thymidine incorporation) in slowly proliferating keratinocytes; type: cell-based, mouse; conditions: liposomes, 24 hours; for effect on DNA synthesis ([3H]thymidine incorporation into DNA): keratinocytes with reduced proliferation; for lowest concentration at which stimulation of DNA synthesis was observed / stimulation of DNA synthesis compared with egg-derived PG: FIG. 20B
# Procedure: Confluent keratinocytes were treated for 24 hours with the indicated concentrations of phosphatidylglycerol (PG), prepared via bath sonication of PG in serum-free keratinocyte medium. [^3H]Thymidine incorporation into DNA was then determined as above. [^3H]Thymidine incorporation into DNA under control conditions was 12,880±1,040 cpm/well. Values represent the means±SEM of 3 separate experiments performed in duplicate; *p<0.01, **p<0.001 versus the control value.
# (§1) Keratinocytes were prepared from ICR CD-I outbred mice in accordance with a protocol approved by the Institutional Animal Care and Use Committee. Briefly, the skins were harvested and incubated overnight in 0.25% trypsin at 4° C. The epidermis and dermis were separated and basal keratinocytes scraped from the underside of the epidermis. The cells were collected by centrifugation and incubated overnight in an atmosphere of 95% air/5% carbon dioxide at 37° C. in plating medium as described in Dodd M E, Ristich V L, Ray S, Lober R M, Bollag W B (2005) Regulation of protein kinase D during differentiation and proliferation of primary mouse keratinocytes. J Invest Dermatol 125:294-306, incorporated herein by reference. The plating medium was replaced with serum-free keratinocyte medium (SFKM) also as in Dodd, et al., and the cells were refed every 1-2 days with fresh medium until use.
# (§2) [^3H]Thymidine incorporation into DNA was determined as a measure of DNA synthesis as previously described by Griner, et al., above. Near-confluent keratinocyte cultures were incubated for 24 hours in SFKM containing the indicated additions. PG was added in the form of liposomes prepared by bath sonication of dried PG in SFKM to make a stock solution of 2 mg/mL. [^3H]Thymidine at a final concentration of 1 μCi/mL was then added to the cells for an additional 1-hour incubation. Reactions were terminated by washing with PBS- and macromolecules precipitated with ice-cold 5% trichloroacetic acid. Cells were solubilized in 0.3 M NaOH and the radioactivity incorporated into DNA quantified by liquid scintillation spectroscopy.
# (§3) [^3H]Thymidine incorporation was used as a measure of DNA synthesis and was performed as described in Example 2. Liposomes containing PG and functional derivatives thereof were prepared by bath sonication as described in Example 2, with the exception that different concentrations of material were employed.
# [2] = tested on: primary epidermal keratinocytes; test: Radiolabeled phosphatidylglycerol formation in intact keratinocytes; type: cell-based, mouse
# Procedure: Primary epidermal keratinocytes were prepared from 1-3-day old neonatal ICR mice after trypsin flotation of the skin and mechanical separation of the epidermis from the dermis. The epidermal cells were released by scraping, collected by centrifugation and plated in 6-well dishes in a medium consisting of MEM containing 25 μM calcium, 2% dialyzed fetal bovine serum, 2 mM glutamine, 5 ng/mL EGF, ITS (6.25 μg/mL insulin+6.25 μg/mL transferrin+6.25 ng/mL selenious acid+5.35 μg/mL linoleic acid+1.25% bovine serum albumin), 100 U/mL penicillin, 100 μg/mL streptomycin and 0.25 μg/mL fungizone. After an overnight incubation, the cells were refed with serum-free keratinocyte medium (SFKM), in which 2% dialyzed fetal bovine serum was replaced with 90 μg/mL bovine pituitary extract. Cells were refed with fresh medium every 1-3 days.
# For the PLD assay cultured primary keratinocytes were labeled for 20-24 hours with 2.5 μCi/ml [^3H] oleic acid. The cells were then exposed to vehicle or 100 nM PMA in the presence of 0.5% ethanol for 30 minutes. To measure the formation of radiolabeled phosphatidylglycerol, cells were treated for 24 hours with SFKM containing vehicle, 250 nM 1,25-dihydroxyvitamin D3 or 125 μM calcium and then labeled for an additional 30 minutes with 1-2.5 μCi/mL [^3H] or 0.4-0.5 μCi/mL [^14C]glycerol. For experiments investigating the extracellular calcium dependence of PG formation, cells were incubated for 24 hours in SFKM containing various calcium concentrations prior to the addition of 5 μCi/mL [^3H]glycerol for 30 minutes. In some cases, cells were stimulated with 25 μM calcium (control)—or 125 μM calcium-containing SFKM for 24 hours prior to the addition of [^14C]glycerol in the presence and absence of 1% ethanol. To measure phosphatidylglycerol formation in response to PMA, unlabeled cells were stimulated with 100 nM PMA in the presence of radiolabeled glycerol, as above. Reactions were terminated and the radiolabeled phosphatidylalcohol extracted, separated by thin-layer chromatography and quantified as described by Bollag (1998), referenced above.
# [3] = tested on: rapidly dividing keratinocytes; test: Assay of DNA synthesis ([3H]thymidine incorporation) in rapidly dividing keratinocytes; type: cell-based; conditions: for effect on DNA synthesis ([3H]thymidine incorporation into DNA) / concentration of maximal inhibition of DNA synthesis / inhibition of DNA synthesis compared with egg-derived PG / lowest concentration at which inhibition of DNA synthesis was observed / effect on DNA synthesis in presence of 125 μM Ca2+ / inhibition of DNA synthesis, percent of control (in words): 24 hours; for effect on DNA synthesis ([3H]thymidine incorporation into DNA): control (25 μM Ca2+) medium; for concentration of maximal inhibition of DNA synthesis / inhibition of DNA synthesis compared with egg-derived PG / lowest concentration at which inhibition of DNA synthesis was observed: liposomes; for inhibition of DNA synthesis compared with egg-derived PG / lowest concentration at which inhibition of DNA synthesis was observed: FIG. 20A; for effect on DNA synthesis in presence of 125 μM Ca2+: 125 μM Ca2+ medium; for inhibition of DNA synthesis, percent of control (in words) / concentration at which DNA synthesis was inhibited: FIG. 21B; for inhibition of DNA synthesis, percent of control (in words): PG versus PP headgroup species; for concentration at which DNA synthesis was inhibited: lowest tested 25 μg/mL, highest tested 100 μg/mL
# Procedure: as §1, §2, §3
# AQP3 null mutant mouse = conditions: studies of the AQP3 null mutant mouse; cited from earlier work
compound,measurement,setting,value
"CCCCCC(=O)OCC(COP(=O)(O)OCC(O)CO)OC(=O)CCCCC (centres unmarked) [DHPG, dihexanoyl-PG]",effect on DNA synthesis ([3H]thymidine incorporation into DNA),[1],only mildly stimulatory
CCO [ethanol],basal (control) PG production,"[2]; 1% ethanol, 25 μM calcium control cells",without affecting basal (control) PG production
same,PG formation stimulated by preexposure to elevated extracellular calcium,"[2]; 1% ethanol, cells pretreated with 125 μM calcium, [14C]glycerol",significantly inhibited PG formation
palmitoyl-linoleoyl-PG [PLPG],effect on DNA synthesis ([3H]thymidine incorporation into DNA),[3],inhibit DNA synthesis in a dose dependent manner
same,concentration of maximal inhibition of DNA synthesis,[3],100 µg/mL
same,inhibition of DNA synthesis compared with egg-derived PG,[3],at least as strongly as egg-derived PG
same,lowest concentration at which inhibition of DNA synthesis was observed,[3],50 µg/mL
"CCCCCCCCCCCCCCCC(=O)OCC(COP(=O)(O)OCC(O)CO)OC(=O)CCCCCCCCCCCCCCC (centres unmarked) [DPPG, dipalmitoyl-PG]",lowest concentration at which stimulation of DNA synthesis was observed,[1],50 µg/mL
same,stimulation of DNA synthesis compared with egg-derived PG,[1],approximately the same level as egg-derived PG
"CCCCC/C=C\C/C=C\C/C=C\C/C=C\CCCC(=O)O[C@H](COC(=O)CCCCCCCCCCCCCCC)COP(=O)(O)OCC(O)CO (some centres unmarked) [PAPG, palmitoyl-arachidonoyl-PG]",effect on DNA synthesis ([3H]thymidine incorporation into DNA),[1],only mildly stimulatory
same,effect on DNA synthesis ([3H]thymidine incorporation into DNA),[3],inhibit DNA synthesis in a dose dependent manner
same,concentration of maximal inhibition of DNA synthesis,[3],100 µg/mL
same,inhibition of DNA synthesis compared with egg-derived PG,[3],at least as strongly as egg-derived PG
same,lowest concentration at which inhibition of DNA synthesis was observed,[3],12.5 µg/mL
"OCCCO [1,3-propylene glycol]",correction of the epidermal phenotype of the knockout model,AQP3 null mutant mouse,not
OC[C@@H](O)[C@H](O)[C@@H](O)CO [xylitol],effect on DNA synthesis in presence of 125 μM Ca2+,[3],no significant effect
same,effect on DNA synthesis ([3H]thymidine incorporation into DNA),[3],no significant effect
same,correction of the epidermal phenotype of the knockout model,AQP3 null mutant mouse,not
"CCCCCCCC/C=C\CCCCCCCC(=O)O[C@H](COC(=O)CCCCCCCCCCCCCCC)COP(=O)(O)OCC(O)CO (some centres unmarked) [POPG, palmitoyl-oleoyl-PG]",effect on DNA synthesis ([3H]thymidine incorporation into DNA),[1],only mildly stimulatory
same,effect on DNA synthesis ([3H]thymidine incorporation into DNA),[3],moderate inhibition of DNA synthesis
same,lowest concentration at which inhibition of DNA synthesis was observed,[3],100 µg/mL
"CCCCCCCC/C=C\CCCCCCCC(=O)OC[C@H](COP(=O)(O)OCCC)OC(=O)CCCCCCC/C=C\CCCCCCCC [DOPP, dioleoyl-phosphatidylpropanol]",effect on DNA synthesis ([3H]thymidine incorporation into DNA),[3],no impact on DNA synthesis
same,"inhibition of DNA synthesis, percent of control (in words)",[3],lack of effect
"CC(O)CO (centres unmarked) [1,2-propylene glycol]",effect on DNA synthesis in presence of 125 μM Ca2+,[3],dose dependent inhibition
same,effect on DNA synthesis ([3H]thymidine incorporation into DNA),[3],dose dependent inhibition
same,correction of the epidermal phenotype of the knockout model,AQP3 null mutant mouse,not
"CCCCCCCCCCCCCCCC(=O)OC[C@H](COP(=O)(O)OCCC)OC(=O)CCCCCCCCCCCCCCC [DPPP, dipalmitoyl-PP]",effect on DNA synthesis ([3H]thymidine incorporation into DNA),[3],did not affect DNA synthesis
same,"inhibition of DNA synthesis, percent of control (in words)",[3],lack of effect
"CCCCC/C=C\C/C=C\CCCCCCCC(=O)OC[C@H](COP(=O)(O)OCCC)OC(=O)CCCCCCC/C=C\C/C=C\CCCCC [DLPP, dilinoleoyl-PP]","inhibition of DNA synthesis, percent of control (in words)",[3],not statistically significant
same,concentration at which DNA synthesis was inhibited,[3],100 µg/mL
"CCCCC/C=C\C/C=C\CCCCCCCC(=O)OC[C@H](COP(=O)(O)OCC(O)CO)OC(=O)CCCCCCC/C=C\C/C=C\CCCCC (some centres unmarked) [DLPG, dilinoleoyl-PG]",effect on DNA synthesis ([3H]thymidine incorporation into DNA),[3],inhibit DNA synthesis in a dose dependent manner
same,concentration at which DNA synthesis was inhibited,[3],≤ 25 µg/mL
same,concentration of maximal inhibition of DNA synthesis,[3],100 µg/mL
same,inhibition of DNA synthesis compared with egg-derived PG,[3],at least as strongly as egg-derived PG
same,lowest concentration at which inhibition of DNA synthesis was observed,[3],6.25 µg/mL
OC[C@@H](O)[C@@H](O)[C@H](O)[C@@H](O)CO [sorbitol],effect on DNA synthesis in presence of 125 μM Ca2+,[3],no significant effect
same,effect on DNA synthesis ([3H]thymidine incorporation into DNA),[3],no significant effect
"CCCCCCCC/C=C\CCCCCCCC(=O)OC[C@H](COP(=O)(O)OCC(O)CO)OC(=O)CCCCCCC/C=C\CCCCCCCC (some centres unmarked) [DOPG, dioleoyl-PG]",concentration of maximal stimulation of DNA synthesis,[1],100 µg/mL
same,lowest concentration at which stimulation of DNA synthesis was observed,[1],12.5 µg/mL
same,stimulation of DNA synthesis compared with egg-derived PG,[1],more potently than egg-derived PG
same,effect on DNA synthesis ([3H]thymidine incorporation into DNA),[1],potent stimulator of DNA synthesis
same,effect on DNA synthesis ([3H]thymidine incorporation into DNA),[3],no inhibition of DNA synthesis
"C=C1/C(=C\C=C2/CCC[C@]3(C)[C@@H]([C@H](C)CCCC(C)(C)O)CC[C@@H]23)C[C@@H](O)C[C@@H]1O [1,25-dihydroxyvitamin D3]",radiolabeled PG formation relative to control cells,"[2]; 24 hours pretreatment (250 nM 1,25-dihydroxyvitamin D3 or 125 μM calcium), then [3H]glycerol 30 minutes",did not increase radiolabeled PG formation
same,PG production,"[2]; intermediate (10 nM) and high (250 nM) concentrations, 24 hours",significantly inhibited PG production
